Measurements from patent US8546397B2, “DNA methylation inhibitors” (The Ohio State University Research Foundation, priority 2010, dated 2013).
Entries after “also recorded” stand apart in the source; their conditions may differ. Where two headings read alike, the source gives them in different places.

Columns and labels:
[1] = test system: GSTp1; assay: Methylation-specific PCR (MSP) of GSTp1; type: cell-based; details: MCF7 cells, 7.5 or 30 μM, 5 days of treatment
[2] = test system: Trip10 promoter methylation (EGFP expression) in MCF7 cells; details: for inhibition of EGFP expression (DNA demethylation) in library screening: each compound at 7.5 μM, MCF7 reporter cells; for EGFP expression levels relative to DMSO control: transfected MCF7 cells, different concentrations, 5-day treatment, fluorescence microscopy
[3] = test system: Trip10 promoter; assay: Methylation-specific PCR (MSP) of Trip10; type: cell-based; details: MCF7 cells, 7.5 or 30 μM, 5 days of treatment
Protocol: (§1) Cell culture and drug treatment. […] 5-Aza and procainamide were purchased from Sigma-Aldrich. […] Control cells received DMSO vehicle.
Bisulfite conversion. Genomic DNA (0.5 μg) was bisulfite-converted by the EZ DNA Methylation Kit (Zymo) by following the manufacturer's instructions.
qMSP. Bisulfite converted DNAs were PCR-amplified by using appropriate PCR primers. Universal methylated DNAs (Millipore) were used as positive control. Col2A1 was used as a loading control and to amplify the serial diluted (1/10, 1/100 and 1/1000) bisulfite-converted universal methylated DNAs to generate the standard curve for quantization in real time PCR machine (Bio-Rad, iQ5). The methylation percentage was calculated as [(Intensity of Amplifications by Trip10 MSP primer set)×100]/(Intensity of Amplifications by Col2A1 MSP primer set) (%). The qMSP was performed in a 25 μL, of reaction mixture containing 4 μL of template (bisulfate treated DNA), 2 μL of primer pair (2.5 μM), 12.5 μL of 2× reaction buffer (SYBR Green real time PCR Master Mix, Toyobo), and 6.5 μL of H2O.

[4] = test system: EGFP expression in MCF7 cells; assay: GFP ELISA of EGFP expression in the two-component reporter system; type: cell-based
Protocol: as §1
ELISA. Enzyme-linked immunosorbent assay (ELISA) was performed using the GFP ELISA kit (Cell Biolabs, San Diego, Calif.) according to the manufacture's instruction.

[5] = test system: EGFP expression in MCF7 cells; assay: Western blot analysis of EGFP expression; type: cell-based; details: 7.5 μM, 5 days
Protocol: as §1
Western blotting. Equal amounts of protein in cell lysates were separated in 10% SDS polyacrylamide gels and then transblotted to nitrocellulose membranes. After blocking with non-fat milk, the membrane was washed and incubated with antibodies against GFP (Abeam) or (β-actin (Sigma-Aldrich). The membrane was washed, and then incubated with anti-rabbit immunoglobulin G-horseradish peroxidase. After final wash, the proteins were visualized by enhanced chemiluminescence. Immunoblotting data were analyzed by NIH Image.
In another set of experiment, cells were treated with 7.5 μM of candidate drugs for 5 days, then the cell lysates were harvested and subjected to Western blot. […] The inconsistence between the Western blot result versus the ELISA/images is not immediately clear. Results obtained from ELISA and Western blot confirmed that IM25 is an effective demethylation agent in inhibiting EGFP expression.

[6] = test system: genome-wide methylation in MCF7 cells; assay: Differential Methylation Hybridization (DMH) array, genome-wide methylation; type: cell-based
Protocol: Differential Methylation Hybridization (DMH) Array. DMH was performed according to a reported procedure. Yan et al., J Nutr, 132(8 Suppl): p. 2430S-2434S (2002). Amplicons prepared from control (vehicle-treated) MCF7 cells were labeled with Cy5 and the amplicons prepared from drug-treated cells were labeled with Cy3. Labeled DNAs were co-hybridized onto 244K Agilent promoter array. Array hybridization results were normalized with LOWESS and a cutoff of 4 folds was used.
Statistics. ELISA and MTT results were analyzed by F-test. Significant demethylated loci were confirmed by ANOVA from DMH results. Linear regression was used to deduce the global methylation states before and after the demethylation agent treatment.

[7] = test system: MCF7 cells; assay: MTT cell viability assay; details: 5-day treatment, dose range
Protocol: (§2) MCF7 breast cancer cells, obtained from American Type Culture Collection, were grown in Minimal Essential Medium (MEM; Invitrogen), supplemented with 10% FBS, 2 mM L-glutamine, and 100 μg/ml penicillin/streptomycin. Cells were cultured at 37° C. in a humidified incubator containing 5% CO2. Medium changes were performed twice weekly and cell passages were performed at 90% confluence. To maintain the two-component constructs in MCF7 cells, 200 μg/mL of hygromycin B (Invitrogen) and 500 μg/mL of Geneticin (G418, Calbiochem) were included in culture medium. 5-Aza and procainamide were purchased from Sigma-Aldrich. Compounds being tested were dissolved in DMSO as stock solutions, and added to culture medium with final DMSO concentrations of 0.3% and 1.2% (v/v) for 7.5 μM and 30 μM of testing drugs, respectively. Control cells received DMSO vehicle. During the 5-day treatment period, medium was changed on the third day of treatment along with the addition of 17β-estradiol (E2, 10 ng/ml).
(§3) Cell viability was assessed using MTT [3-(4,5-dimethylthiazol-2-yl)-2,5-diphenyl-2H-tetrazolium bromide, Sigma-Aldrich) in six replicates. MCF7 cells were seeded at 4,000 cells per well in 96-well plates, and treated with test agents at different concentrations. […] Reduced MTT was solubilized in 200 μl/well of DMSO for determination of absorbance of 595 nm using a microplate reader.

[8] = test system: cancer cell growth; details: Lee et al., J. Biol. Chem. 280 (2005); cited from earlier work
[9] = test system: MCF7 cells
Protocol: as §2, §3

SMILES | methylation level of GSTp1 [1] | inhibition of EGFP expression (DNA demethylation) in library screening [2] | methylation level of Trip10 [3] | demethylation potency in terms of inhibiting the EGFP expression [4] | protein level of EGFP [5] | global (genome-wide) demethylation ([6]; MCF7 cells, 7.5 μM) | more demethylated loci than after 5-Aza treatment ([6]; out of 244K target loci in Agilent array, significant by ANOVA) | morphological changes, light microscopy (Vis) [2] | EGFP expression levels relative to DMSO control [2] | suppression of MCF7 cell viability [7] | concentration required to be effective in DNA demethylation in suppressing cancer cell growth [8] [µM] | suppression of MCF7 cell viability [9]
COc1ccc(O)c(C(C)=O)c1 [CI-4-1] | decreases the methylation level of both genes, but to a lesser extent; also recorded: significantly reduced the methylation level of GSTp1 | high activity | decreases the methylation level of both genes, but to a lesser extent; also recorded: weaker effect in demethylating Trip10 promoter |  |  |  |  |  |  |  |  | 
COc1ccc(S(=O)(=O)N2CCNCC2)cc1OC [IM25] | greatest potency in facilitating the demethylation of both Trip10 and GSTp1; also recorded: significantly reduced the methylation level of GSTp1 | high activity | greatest potency in facilitating the demethylation of both Trip10 and GSTp1; also recorded: weaker effect in demethylating Trip10 promoter | greater demethylation potency than 5-Aza | substantially suppressed | able to cause global demethylation in MCF7 cells | 5,506 loci |  |  |  |  | 
CCN(CC)CCNC(=O)c1ccc(N)cc1 [procainamide] | significantly reduced the methylation level of GSTp1 |  | weaker effect in demethylating Trip10 promoter |  |  |  |  | did not cause morphological changes | dose-dependent, repressive effects on EGFP expression levels | did not cause morphological changes [light microscopy (Vis)] or suppression of cell viability | ≥ 50 | 
O=S(=O)(c1ccc(Br)cc1)N1CCNCC1 [IM9] |  |  |  |  | significantly inhibited |  |  |  |  |  |  | 
Nc1ncn([C@H]2C[C@H](O)[C@@H](CO)O2)c(=O)n1 [Compound 5-Aza, 5-aza-2′-deoxycytidine] | significantly reduced the methylation level of GSTp1 |  | weaker effect in demethylating Trip10 promoter |  |  |  |  | did not cause morphological changes | dose-dependent, repressive effects on EGFP expression levels |  |  | did not cause morphological changes [light microscopy (Vis)] or suppression of cell viability
